Here are results for six compounds from ChEMBL document CHEMBL3217490, “An approach to enzyme inhibition employing reversible boronate ester formation” (Medchemcomm, 2011).

Activity calls are given as the source filed them. The rule behind the calls is not given here.

The nature of data set [1]: Inhibition of alpha-chymotrypsin (unknown origin). Also noted: species or system Homo sapiens.
The species entered for data set [2] is Homo sapiens. As to the kind of experiment: Binding affinity to alpha-chymotrypsin (unknown origin) at 5 mM by [1H] waterLOGSY NMR analysis in presence of D-fructose.
The species named for data set [3] is Homo sapiens. As to the kind of experiment: Binding affinity to alpha-chymotrypsin (unknown origin) at 1 mM at pH 5.8 by 11B-NMR analysis in presence of D-fructose.
Data set [4] is described as follows: Inhibition of Escherichia coli beta-lactamase AmpC.
The nature of data set [5]: Dissociation constant, pKa of the compound. It is filed as physicochemical.
Data set [6] is filed under the species Homo sapiens. As to the kind of experiment: Binding affinity to alpha-chymotrypsin (unknown origin) at 5 mM by [1H] waterLOGSY NMR analysis in presence of L-fructose.
The species named for data set [7] is Homo sapiens. As to the kind of experiment: Binding affinity to alpha-chymotrypsin (unknown origin) at 1 mM at pH 5.8 by 11B-NMR analysis in presence of L-fructose.
The species entered for data set [8] is Homo sapiens. As to the kind of experiment: Binding affinity to alpha-chymotrypsin (unknown origin) at 1 mM at pH 5.8 by 11B-NMR analysis.
Data set [9] is filed under the species Homo sapiens. As to the kind of experiment: Inhibition of alpha-chymotrypsin (unknown origin) using succinyl-Ala-Ala-Pro-Phe-para-nitroanilide as substrate assessed as residual activity at 25 uM after 10 mins in presence of L-glucose relative to control.
The species entered for data set [10] is Homo sapiens. As to the kind of experiment: Binding affinity to alpha-chymotrypsin (unknown origin) at 1 mM at pH 5.8 by 11B-NMR analysis in presence of L-sorbose.
For data set [11], the species on record is Homo sapiens. As to the kind of experiment: Inhibition of alpha-chymotrypsin (unknown origin) using succinyl-Ala-Ala-Pro-Phe-para-nitroanilide as substrate assessed as residual activity at 25 uM after 10 mins in presence of L-fructose relative to control.
The species entered for data set [12] is Homo sapiens. As to the kind of experiment: Binding affinity to alpha-chymotrypsin (unknown origin) at 1 mM at pH 5.8 by 11B-NMR analysis in presence of D-sorbose.
The species entered for data set [13] is Homo sapiens. As to the kind of experiment: Inhibition of alpha-chymotrypsin (unknown origin) using succinyl-Ala-Ala-Pro-Phe-para-nitroanilide as substrate assessed as residual activity at 25 uM after 10 mins in presence of D-glucose relative to control.
The species named for data set [14] is Homo sapiens. As to the kind of experiment: Inhibition of alpha-chymotrypsin (unknown origin) using succinyl-Ala-Ala-Pro-Phe-para-nitroanilide as substrate assessed as residual activity at 25 uM after 10 mins in presence of D-fructose relative to control.

For orientation: IC50 means the concentration needed to halve the response being measured. One may read the pKa as the pH at which an ionisable group is half protonated.

Consider `OB(O)c1cc2ccccc2o1`, for which the IC50 in data set [1] was determined as 14 µM; in data set [4] it was 0.22 µM. Besides, the result in the data set listed under Homo sapiens [2] and in the data set filed under Homo sapiens [3] was Active. This compound also had a pKa in [5] of 7.3. Also, the result in the data set listed under Homo sapiens [6] was inactive.

Regarding `OB(O)O` [BORIC ACID], the pKa in data set [5] worked out at 10.

As for `OB(O)c1cc2ccccc2s1`, the result in the data set filed under Homo sapiens [7], in the data set listed under Homo sapiens [8], in the data set listed under Homo sapiens [2], in the data set filed under Homo sapiens [10], in the data set listed under Homo sapiens [3] and in the data set listed under Homo sapiens [12] was Active. This compound also showed an IC50 in data set [1] of 5 µM. Further, the Activity came to 94% in the data set filed under Homo sapiens [9], 97% in the data set filed under Homo sapiens [11], 97% in the data set listed under Homo sapiens [13] and 78% in the data set filed under Homo sapiens [14]. In data set [5], the pKa turned out to be 7.44. Besides, the result in the data set listed under Homo sapiens [6] was inactive.

`OB(O)c1ccc(O)cc1`: in [5], the pKa worked out at 10.

In data set [5], `CCB(O)O` registered a pKa of 10.

With `OB(O)c1ccc2ccccc2c1`, in data set [5], the pKa turned out to be 8.88.
